In US6528528B2 (Warner-Lambert Company, priority 1997, dated 2003):
Where two headings read alike, the source gives them in different places.

Assays:
[1] = biological target: T1, rabbit reticulocyte 15-LO (Oryctolagus cuniculus, UniProt P12530); assay: Rabbit Reticulocyte 15-LO Assay (h15LO); format: biochemical; conditions: for IC50: 2U rabbit reticulocyte 15-LO, 174 μM linoleic acid, 15 minutes at 4° C.; for h15LO, value given as bare %: concentration not given
T1 construct: Fifteen-lipoxygenase was obtained from phenylhydrazine-treated rabbits and purified per the method of Rapoport; from tissue; host or cells: reticulocytes of phenylhydrazine-treated rabbits
T1 sequence (P12530 1-663): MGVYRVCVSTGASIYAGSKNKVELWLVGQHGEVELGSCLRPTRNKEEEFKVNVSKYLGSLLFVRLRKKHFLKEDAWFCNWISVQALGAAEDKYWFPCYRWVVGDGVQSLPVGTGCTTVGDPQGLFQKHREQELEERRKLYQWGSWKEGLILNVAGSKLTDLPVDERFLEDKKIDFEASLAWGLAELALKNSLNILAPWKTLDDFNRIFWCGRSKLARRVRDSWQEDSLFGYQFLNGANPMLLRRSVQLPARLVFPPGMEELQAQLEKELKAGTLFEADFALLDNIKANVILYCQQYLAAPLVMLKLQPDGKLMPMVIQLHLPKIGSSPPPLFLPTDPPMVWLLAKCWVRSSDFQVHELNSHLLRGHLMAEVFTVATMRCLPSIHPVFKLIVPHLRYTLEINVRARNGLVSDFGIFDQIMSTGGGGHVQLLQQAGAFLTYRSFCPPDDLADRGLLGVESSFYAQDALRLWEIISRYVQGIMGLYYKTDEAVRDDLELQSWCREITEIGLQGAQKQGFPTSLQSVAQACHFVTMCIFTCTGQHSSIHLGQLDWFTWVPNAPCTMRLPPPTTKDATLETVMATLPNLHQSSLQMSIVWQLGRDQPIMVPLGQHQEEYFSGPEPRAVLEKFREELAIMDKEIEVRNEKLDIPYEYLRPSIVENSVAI
Outline: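 Purified rabbit reticulocyte 15-LO (2U) incubated with inhibitor and 174 μM linoleic acid in PBS with 0.2% Na cholate for 15 minutes at 4° C. 13-HPODE quantified by peak area against 13-HODE standard curve; % inhibition relative to uninhibited reaction.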

[2] = 0.25 h, Table 2, read-out: h15LO % @ 10 μM
[3] = Table 1, read-out: h15LO % Inhibition at 10 μM

Row | melting point | IC50 ([1]; Table 2) | SMILES | also measured
1 | 189 to 190 °C | 115 nM | COc1ccc(C(=O)Nc2ccccc2)cc1NS(=O)(=O)c1cc(Cl)sc1Cl [Example 132, 3-(2,5-Dichlorothiophene-3-sulfonylamino)-4-methoxy-N-phenyl-benzamide] | 
2 | 182 to 183 °C | 390 nM | COc1ccc(C(=O)Nc2ccccc2)cc1NC(=S)Nc1ccc(F)cc1 [Example 78, 3-[3-(4-Fluorophenyl)-thioureido]-4-methoxy-N-phenyl-benzamide] | 
3 | 198 to 200 °C | 151 nM | COc1ccc(C(=O)Nc2ccccc2)cc1NS(=O)(=O)c1ccc(F)cc1F [Example 137, 3-(2,4-Difluoro-benzenesulfonylamino)-4-methoxy-N-phenyl-benzamide] | 
4 | 105 to 108 °C |  | COc1ccc(CNc2ccccc2)cc1NS(=O)(=O)c1cc(Cl)cc(Cl)c1 [Example 209, 3,5-Dichloro-N-(2-methoxy-5-phenylaminomethyl-phenyl)-benzenesulfonamide] | h15LO, value given as bare % ([1]; Table 2): 80.94%
5 | 205 to 210 °C | 48 nM | COc1ccc(C(=O)Nc2ccccc2)cc1NS(=O)(=O)c1cc(Br)c(Br)s1 [Example 126, 3-(4,5-Dibromothiophene-2-sulfonylamino)-4-methoxy-N-phenyl-benzamide] | 
6 | 168 to 171 °C | 11 nM | COc1ccc(C(=O)Nc2ccccc2)cc1NC(=S)Nc1cccc(C)c1 [Example 95, 4-Methoxy-N-phenyl-3-(3-m-tolyl-thioureido)-benzamide] | 
7 | 218 to 219 °C | 260 nM | COc1ccc(NC(=O)Nc2ccccc2)cc1NC(=S)Nc1cc(Cl)cc(Cl)c1 [Example 86, 1-{3-[3-(3,5-Dichlorophenyl)-thioureido]-4-methoxyphenyl}-3-phenyl-urea] | 
8 | 225 to 227 °C |  | COc1ccc(C(=O)Nc2ccccc2)cc1NC(=NC#N)Nc1cc(Cl)cc(Cl)c1 [Example 256, 3-[[(Cyanoimino)[(3,5-dichlorophenyl)amino]methyl]amino]-4-methoxy-N-phenyl-benzamide] | h15LO, value given as bare % ([1]; Table 2): 45%
9 | 190 to 193 °C | 14 nM | COc1ccc(C(=O)Nc2ccc(Cl)c(Cl)c2)cc1NC(=S)Nc1ccc(S(N)(=O)=O)cc1 [Example 105, N-(3,4-Dichlorophenyl)-4-methoxy-3-[3-(4-sulfamoyl-phenyl)-thioureido]-benzamide] | 
10 | 174 to 177 °C | 500 nM | O=C(Nc1ccccc1)c1cccc(NC(=S)Nc2cc(Cl)cc(Cl)c2)c1 [Example 70, 3-[3-(3,5-Dichlorophenyl)-thioureido]-N-phenyl-benzamide] | 
11 | 183 to 186 °C | 44 nM | COc1ccc(NC(=O)c2ccc(Cl)c(Cl)c2)cc1NC(=S)Nc1cc(Cl)cc(Cl)c1 [Example 115, 3,4-Dichloro-N-{3-[3-(3,5-dichlorophenyl)-thioureido]-4-methoxyphenyl}-benzamide] | 
12 | 194 to 196 °C | 49 nM | COc1ccc(C(=O)Nc2ccccc2)cc1NC(=S)Nc1ccc(C(F)(F)F)cc1 [Example 63, 4-Methoxy-N-phenyl-3-[3-(4-trifluoromethyl-phenyl)-thioureido]-benzamide] | 
13 | 203 to 205 °C | 11 nM | COc1ccc(C(=O)Nc2ccccc2)cc1NC(=S)Nc1cc(C)cc(C)c1 [Example 99, 3-[3-(3,5-Dimethylphenyl)-thioureido]-4-methoxy-N-phenyl-benzamide] | 
14 | 183 to 185 °C | 14.9 nM | COc1ccc(C(=O)Nc2ccccc2)cc1NC(=S)Nc1cccc(C#N)c1 [Example 74, 3-[3-(3-Cyanophenyl)-thioureido]-4-methoxy-N-phenyl-benzamide] | 
15 | 250 to 251 °C | 104 nM | COc1ccc(C(=O)Nc2ccccc2)cc1NS(=O)(=O)c1ccc(NC(C)=O)cc1 [Example 139, 3-(4-Acetylamino-benzenesulfonylamino)-4-methoxy-N-phenyl-benzamide] | 

The next lines start with the molecule.

Row | SMILES | melting point | IC50 ([1]; Table 2) | also measured
16 | COc1ccc(C(=O)Nc2cc(C)cc(C)c2)cc1N [Example 11, 3-Amino-4-methoxy-N-(3,5-dimethylphenyl)-benzamide] | 155 to 162 °C |  | IC50 ([1]; Table 1): 390 nM
17 | COc1ccccc1Nc1cc(C(=O)Nc2ccccc2)ccc1OC [Example 29, 3-(2-Methoxy-phenylamino)-4-methoxy-N-phenyl-benzamide] | 155 to 156 °C | > 3000 nM | 
18 | COc1ccc(C(=O)Nc2ccc(F)c(F)c2)cc1N [Example 15, 3-Amino-4-methoxy-N-(3,4-difluorophenyl)-benzamide] | 171 to 172 °C |  | IC50 ([1]; Table 1): 9 nM
19 | COc1ccc(C(=O)Oc2ccccc2)cc1Nc1ccccc1 [Example 55, 3-(Phenylamino)-4-methoxybenzoic Acid, Phenyl Ester] | 130 to 131 °C |  | inhibition at 10 µM [1, 2]: 54%
20 | CSc1ccc(C(=O)Nc2ccccc2)cc1N [Example 20, 3-Amino-4-methylsulfanyl-N-phenyl-benzamide] | 143 to 145 °C |  | IC50 ([1]; Table 1): 203 nM
21 | CCc1ccc(C(=O)Nc2ccc(Cl)c(Cl)c2)cc1N [Example 18, 3-Amino-4-ethyl-N-(3,4-dichlorophenyl)-benzamide] | 115 to 117 °C |  | IC50 ([1]; Table 1): 2510 nM
22 | CCc1ccc(C(=O)Nc2ccccc2)cc1Nc1cccc(C(F)(F)F)c1 [Example 41, 4-Ethyl-3-(3-trifluoromethyl-phenylamino)-N-phenyl-benzamide] | 133 to 134 °C |  | inhibition at 10 µM [1, 2]: 65%
23 | Cc1ccc(NC(=O)c2ccc(O)c(Nc3cc(Cl)cc(Cl)c3)c2)cc1 [Example 58, 3-(3,5-Dichloro-phenylamino)-4-hydroxy-N-(4-methylphenyl)-benzamide] | 179 to 183 °C | 80 nM | 
24 | COc1ccc(C(=O)Nc2ccccc2)cc1Nc1cccc([N+](=O)[O-])c1 [Example 33, 3-(3-Nitro-phenylamino)-4-methoxy-N-phenyl-benzamide] | 220 to 221 °C | 12 nM | 
25 | CCOc1ccc(C(=O)Nc2ccccc2)cc1N [Example 10, 3-Amino-4-ethoxy-N-phenyl-benzamide] | 189 to 190 °C |  | inhibition at 10 µM [1, 3]: 42%
26 | CCc1ccc(C(=O)Nc2ccccc2)cc1N [Example 17, 3-Amino-4-ethyl-N-phenyl-benzamide] | 111 to 113 °C |  | inhibition at 10 µM [1, 3]: 65%
27 | COc1ccc(C(=O)Nc2ccccc2)cc1NC(=S)Nc1cccc(Cl)c1 [Example 61, 3-[3-(3-Chlorophenyl)-thioureido]-4-methoxy-N-phenyl-benzamide] | 165 to 168 °C | 11 nM | 
28 | COc1ccc(C(=O)Nc2ccccc2)cc1NC(=S)Nc1ccccc1 [Example 62, 4-Methoxy-N-phenyl-3-(3-phenyl-thioureido)-benzamide] | 174 to 176 °C | 70 nM | 
29 | COc1ccc(C(=O)Nc2ccccc2)cc1Oc1ccccc1 [Example 54, 3-Phenoxy-4-methoxy-N-phenyl-benzamide] | 200 to 201 °C |  | inhibition at 10 µM [1, 2]: 60%
30 | COc1ccc(C(=O)Nc2ccccc2)cc1Nc1ccc(C2=NC(C)(C)CO2)cc1 [Example 44, 3-[4-(4,4-Dimethyl-4,5-dihydro-oxazol-2-yl)-phenylamino]-4-methoxy-N-phenyl-benzamide] | 221 to 222 °C | 25 nM | 
